This note sets out measurements from patent publication US7572923B2, “Indirubin derivatives having anticancer property against human cancer cell line” (Anygen Co., Ltd., priority 2004, dated 2009).

Test [1] deals with leukemia cell line (HL-60). Briefly: Differentiation inducing effect, NBT reduction method. In kind it is cell-based, human. The settings on record: 3 days. Here is the method:
For measuring the differentiation inducing effect to acute bone merrow leukemia cell line (HL-60) by indirubin AGM compound, NBT (nitroblue tetrazolium) reduction reaction method is employed. The leukemia cell line is diluted into 2×10^5 cfu/ml. […] Incubated cells are washed with phosphate buffered saline (PBS). Then, they are further incubated in PBS solution containing 0.1% NBT and 200 ng/ml of PMA (phorbol 12-myristate 13-acetate) for 30 minutes at 37° C. Incubated cells are centrifuged and collected cells are washed with PBS solution. Using cell number counter, differentiated cells forming nitroblue formazan among total cells are counted.

Test [2] relates to human stomach cancer cell line (SNU-638). Briefly: Inhibition of cancer cell line proliferation, SNU-638. The settings on record: 96 h, 3˜4 days incubation, absorbance at 515 nm. In kind it is cell-based. Here is the method:
(§1) For measuring the proliferation inhibition by indirubin compound, the method disclosed in K. Likhitwitayawuid et al. Journal. Nat. Prod. […] Followings are simple description of this method. The cancer cell line is diluted into 5×10^4 cfu/ml. Then, various concentrations of test compounds are added to 96 well microtiter plate containing diluted cell line. After incubating test plate for 3˜4 days at 37° C., the test plate is dried and Tris-base is added. Then, using ELISA plate detector, the absorbance at 515 nm is measured. IC50 is measured by non-linear regression method.

Test [3] concerns human lung cancer cell line (A549). Kind of test: Inhibition of cancer cell line proliferation, A549. The settings on record: 96 h, 3˜4 days incubation, absorbance at 515 nm. In kind it is cell-based. Here is the method:
as §1

Test [4] has as its system human leukemia cell line (HL-60). Briefly: Differentiation with low concentration 1,25-(OH)2D3 or ATRA, NBT reduction method. The class given is cell-based. The following applies: for % of Differentiation, 1,25-(OH)2D3: 1 μM compound with 5 nM of 1,25-(OH)2D3; for % of Differentiation, all-trans RA: 1 μM compound with 50 nM of ATRA. Here is the method:
For measuring the differentiation inducing effect to acute bone merrow leukemia cell line (HL-60) by indirubin AGM compound, NBT (nitroblue tetrazolium) reduction reaction method is employed. The leukemia cell line is diluted into 2×10^5 cfu/ml. After treating 20 μM and 1 μM concentrations of test compounds, test plate is incubated for 3 days at 37° C. in 5% CO2 incubator. Incubated cells are washed with phosphate buffered saline (PBS). Then, they are further incubated in PBS solution containing 0.1% NBT and 200 ng/ml of PMA (phorbol 12-myristate 13-acetate) for 30 minutes at 37° C. Incubated cells are centrifuged and collected cells are washed with PBS solution. Using cell number counter, differentiated cells forming nitroblue formazan among total cells are counted.
Next, we test if AGM compound of present invention can synergically induce the differentiation of acute bone merrow leukemia cell line when it is treated with low concentration of 1,25-dihydroxyvitamin D3[1,25-(OH)2D3] or all-trans retinoic acid (ATRA) known as differentiation inducing agent. […] […] As a positive control, conventional differentiation inducing agent is used.

Test [5] has the same test system. Briefly: Inhibition of cancer cell line proliferation, HL-60. The class given is cell-based. The settings on record: HL-60, 96 h, HL60, 3˜4 days incubation, absorbance at 515 nm. The protocol:
as §1

In test [6] the test system is human cell line (HT 1080). Briefly: Inhibition of cancer cell line proliferation, HT 1080. The class given is cell-based. The settings on record: HT-1080, 96 h, read-out: IC50 HT108. Here is the method:
as §1

Test [7] concerns human colon cancer cell line (Col2). Briefly: Inhibition of cancer cell line proliferation, Col2. In kind it is cell-based. The settings on record: 96 h, 3˜4 days incubation, absorbance at 515 nm. Here is the method: as §1

pIC50: −log10 of the molar value. A value given as a limit tells only on which side of the number the result lay.

Consider `Cc1ccc2c(c1)C(=C1Nc3ccccc3C1=O)C(=O)N2` [AGM024, 5′-methyl-1H,1′H-[2,3′] biindolylidene-3,2′-dione], for which the figures for the “% of Differentiation” value in test [1] (1 μM compound) and in test [1] (20 μM compound) were 24.89 ± 6.06% and 14.38 ± 0.42%, respectively. In addition, the pIC50 in test [2], in test [3], in test [5], in test [6] and in test [7] was less than 4.00 in each case. In addition, in test [4], the “% of Differentiation, 1,25-(OH)2D3” value worked out at 41.66 ± 0.40%. Also, in test [4], the “% of Differentiation, all-trans RA” value is 51.01 ± 0.88%.

With `Cc1cc(Cl)cc2c1NC(=O)C2=C1Nc2ccccc2C1=NO` [AGM017, 5′-chloro-7′-methyl-1H,1′H-[2,3′] biindolylidene-3,2′-dione 3-oxime], the “% of Differentiation” value in test [1] (1 μM compound) was 8.37 ± 0.45%; in test [1] (20 μM compound), 2.62 ± 0.23%. In addition, the pIC50 in test [2], in test [3], in test [5], in test [6] and in test [7] was less than 4.00 in each case. In test [4], the “% of Differentiation, 1,25-(OH)2D3” value is 22.10 ± 0.90%. The “% of Differentiation, all-trans RA” value in test [4] stood at 43.17 ± 1.56%.

`Cc1cc(C)c2c(c1)C(=C1Nc3ccccc3C1=O)C(=O)N2` [AGM027, 5′,7′-dimethyl-1H,1′H-[2,3′] biindolylidene-3,2′-dione]: the figures for the “% of Differentiation” value in test [1] (1 μM compound) and in test [1] (20 μM compound) were 9.45 ± 0.92% and 4.75 ± 0.41%, respectively. The pIC50 in test [2], in test [3], in test [5], in test [6] and in test [7] was less than 4.00 each time. Further, the “% of Differentiation, 1,25-(OH)2D3” value in test [4] was found to be 21.74 ± 1.90%. Besides, the “% of Differentiation, all-trans RA” value in test [4] is 43.19 ± 1.73%.

Regarding `Cc1cc(Cl)cc2c1NC(=O)C2=C1Nc2ccccc2C1=O` [AGM028, 5′-chloro-7′-methyl-1H,1′H-[2,3′] biindolylidene-3,2′-dione], the “% of Differentiation” value in test [1] (1 μM compound) came out at 8.85 ± 2.20%; in test [1] (20 μM compound), 0.70 ± 0.16%. Moreover, the pIC50 in test [2], in test [3], in test [5], in test [6] and in test [7] was less than 4.00 in each case. Moreover, in test [4], the “% of Differentiation, 1,25-(OH)2D3” value amounted to 35.22 ± 0.55%. In addition, the “% of Differentiation, all-trans RA” value in test [4] was found to be 55.57 ± 1.11%.

Regarding `O=C1Nc2ccc(Cl)cc2C1=C1Nc2ccccc2C1=O` [AGM025, 5′-chloro-1H,1′H-[2,3′] biindolylidene-3,2′-dione], the “% of Differentiation” value in test [1] (1 μM compound) stood at 26.18 ± 0.59%; in test [1] (20 μM compound), 14.40 ± 0.82%. The pIC50 in test [2], in test [3], in test [5], in test [6] and in test [7] was less than 4.00 throughout. Further, in test [4], the “% of Differentiation, 1,25-(OH)2D3” value turned out to be 49.41 ± 0.08%. Moreover, in test [4], the “% of Differentiation, all-trans RA” value was 48.39 ± 1.48%.

For `O=C1Nc2ccc(I)cc2C1=C1Nc2ccccc2C1=O` [AGM026, 5′-iodo-1H,1′H-[2,3′] biindolylidene-3,2′-dione], the “% of Differentiation” value in test [1] (1 μM compound) was determined as 29.84 ± 1.12%; in test [1] (20 μM compound), 22.23 ± 0.60%. Moreover, the pIC50 in test [2], in test [3], in test [5], in test [6] and in test [7] was less than 4.00 throughout. In test [4], the “% of Differentiation, 1,25-(OH)2D3” value is listed as 44.43 ± 0.09%. Further, in test [4], the “% of Differentiation, all-trans RA” value came to 60.33 ± 0.51%.

As to `Nc1ccc2c(c1)C(=C1Nc3ccccc3C1=NO)C(=O)N2` [AGM031, 5′-amino-1H,1′H-[2,3′] biindolylidene-3,2′-dione-3-oxime], the pIC50 in test [2] is 5.00; in test [3], 5.04; in test [5], 4.89; in test [6], 5.29; in test [7], 4.61.

Usually pIC50 stands for the negative decadic logarithm of the IC50, by convention in mol/L.
